Experimental data from ChEMBL document CHEMBL6074624, “FDA-approved small molecule kinase inhibitors for cancer treatment (2001-2015): Medical indication, structural optimization, and binding mode Part I” (Bioorg Med Chem, 2024).
Converted amounts (≈) assume the structure as drawn. Each block holds one molecule with its values, some of them ahead of it.

Legend:
ACHN = assay: Antiproliferative activity against human ACHN cells assessed as reduction in cell viability measured after 48 hrs by SRB assay; format: functional, cell-based
HT-29 [1] = assay: Antiproliferative activity against human HT-29 cells assessed as reduction in cell viability after 72 hrs by MTS assay; format: functional, cell-based; conditions: HT-29, 72 h
[2] = Anticancer activity against human NCI-H1975 cells harboring EGFR L858R/T790M mutant assessed as reduction in cell viability measured after 72 hrs by MTT assay; format: functional, cell-based; conditions: NCI-H1975, 72 h
PC-9 [3] = assay: Antiproliferative activity against human PC-9 cells harboring EGFR L858R mutant assessed as reduction in cell viability measured after 72 hrs by SRB assay; format: functional, cell-based; conditions: PC-9, 72 h
NCI-H1975 [4] = assay: Growth inhibition of human NCI-H1975 cells; format: functional
PC-9 [5] = assay: Growth inhibition of human PC-9 cells; format: functional
Calu-3 = assay: Growth inhibition of human Calu-3 cells; format: functional
[6] = Aqueous solubility of compound at pH 7.4 by LC-MS/MS analysis; format: physicochemical; conditions: buffer
[7] = target: Voltage-gated inwardly rectifying potassium channel KCNH2 (Homo sapiens, UniProt Q12809); assay: Inhibition of hERG; format: toxicity
[8] = Inhibition of Bcr-Abl T315Ialpha mutant (unknown origin); design: species or system Homo sapiens
[9] = target: T1, Vascular endothelial growth factor receptor 2 (Homo sapiens, UniProt P35968); assay: Binding affinity to VEGFR-2 (unknown origin) assessed as inhibition constant
[10] = target: Epidermal growth factor receptor (Homo sapiens, UniProt P00533, L858R/T790M); assay: Inhibition of EGFR L858R/T790M (unknown origin)
NCI-H1975 [11] = assay: Antiproliferative activity against human NCI-H1975 cells assessed as reduction in cell viability after 24 hrs by MTT assay; format: functional, cell-based; conditions: NCI-H1975, 24 h
[12] = Cytotoxicity against HUVEC cells assessed as reduction in cell viability after 72 hrs by CellTiter-Glo assay; format: toxicity, cell-based; conditions: human
[13] = AUC (0 to infinity) in mouse at 50 mg/kg, po; format: ADME, organism-based; conditions: in vivo
SK-MEL-28 = assay: Antiproliferative activity against human SK-MEL-28 cells assessed as reduction in cell growth after 3 days by MTT assay; format: functional, cell-based; conditions: SK-MEL-28, 72 h
[14] = target: T2, Proto-oncogene tyrosine-protein kinase Src (Homo sapiens, UniProt P12931)
[15] = target: Cyclin-dependent kinase 2 (Homo sapiens, UniProt P24941); assay: Inhibition of CDK2 (unknown origin)
[16] = Inhibition of PDGFR (unknown origin) in NIH3T3 cells; format: cell-based, Homo sapiens
[17] = target: T3, Tyrosine-protein kinase Lck (Homo sapiens, UniProt P06239); assay: Inhibition of human LCK
HT-29 [18] = assay: Antitumor activity against human HT-29 cells xenografted in athymic nude mouse assessed as tumor growth inhibition at 25 mg/kg, ip administered once daily for 21 days relative to control; format: functional; conditions: HT-29, 504 h, time 21 day, read-out: TGI
HT-29 [19] = assay: Antitumor activity against human HT-29 cells xenografted in athymic nude mouse assessed as tumor growth inhibition at 50 mg/kg, po administered once daily for 21 days relative to control; format: functional; conditions: HT-29, 504 h, time 21 day, read-out: TGI
[20] = target: T1, Vascular endothelial growth factor receptor 2; assay: Inhibition of VEGFR2 (unknown origin) phosphorylation in HUVEC cells; format: cell-based
Calu-6 = assay: Antitumor activity against human Calu-6 cells xenografted in athymic nude mouse assessed as tumor growth inhibition at 100 mg/kg, po administered once daily for 21 days relative to control; format: functional; design: scale not given: the % may be the effect or the level left; conditions: time 21 day
[21] = Half life in Sprague-Dawley rat at 5 mg/kg, iv by LC-MS analysis; format: ADME, organism-based; conditions: in vivo
[22] = Oral bioavailability in Sprague-Dawley rat at 5 mg/kg; format: ADME, organism-based; conditions: in vivo
[23] = Half life in dog at 5 mg/kg, iv; format: ADME, organism-based, Canis lupus familiaris; conditions: in vivo
[24] = Oral bioavailability in dog at 5 mg/kg; format: ADME, organism-based, Canis lupus familiaris; conditions: in vivo
[25] = target: Mast/stem cell growth factor receptor Kit (Homo sapiens, UniProt P10721); assay: Inhibition of c-Kit (unknown origin)
[26] = target: T2, Proto-oncogene tyrosine-protein kinase Src; assay: Inhibition of SRC (unknown origin)
[27] = target: Tyrosine-protein kinase Yes (Homo sapiens, UniProt P07947); assay: Inhibition of YES1 (unknown origin)
PC-3 = assay: Antiproliferative activity against human PC-3 cells; format: functional, cell-based
MDA-MB-231 [28] = assay: Antiproliferative activity against human MDA-MB-231 cells; format: functional, cell-based
[29] = target: T3, Tyrosine-protein kinase Lck
COLO 205 = assay: Antitumor activity against human COLO 205 cells xenografted in nu/nu CD-1 mouse assessed as reduction in tumor growth at 100 mg/kg, po administered once daily for 14 days relative to control; format: functional; conditions: COLO 205, 336 h, time 14 day, read-out: TGI
MDA-MB-231 [30] = assay: Antitumor activity against human MDA-MB-231 cells xenografted in nu/nu CD-1 mouse assessed as reduction in tumor growth at 3 mg/kg, po administered once daily for 14 days relative to control; format: functional; conditions: MDA-MB-231, 336 h, time 14 day, read-out: TGI
786-0 = assay: Antitumor activity against human 786-0 cells xenografted in nu/nu CD-1 mouse assessed as reduction in tumor growth at 10 mg/kg, po administered once daily for 21 days relative to control; format: functional; conditions: 786-0, 504 h, time 21 day, read-out: TGI
[31] = Half life in mouse at 10 mg/kg, po by LC-MS/MS analysis; format: ADME, organism-based; conditions: in vivo

T3 sequence (P06239 whole entry): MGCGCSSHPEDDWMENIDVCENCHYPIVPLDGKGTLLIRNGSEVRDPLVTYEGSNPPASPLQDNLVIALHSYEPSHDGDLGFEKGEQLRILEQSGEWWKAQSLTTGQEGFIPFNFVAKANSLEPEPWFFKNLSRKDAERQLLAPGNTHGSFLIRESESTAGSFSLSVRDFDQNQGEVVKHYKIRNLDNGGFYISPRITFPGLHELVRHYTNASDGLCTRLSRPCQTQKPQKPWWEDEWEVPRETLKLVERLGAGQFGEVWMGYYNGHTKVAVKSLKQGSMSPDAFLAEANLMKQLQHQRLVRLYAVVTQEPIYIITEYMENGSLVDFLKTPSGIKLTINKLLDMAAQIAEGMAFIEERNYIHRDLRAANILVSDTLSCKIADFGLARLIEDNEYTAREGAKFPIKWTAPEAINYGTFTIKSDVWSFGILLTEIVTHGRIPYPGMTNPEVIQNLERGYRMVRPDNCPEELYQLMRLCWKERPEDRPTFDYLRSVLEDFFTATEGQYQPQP
T1 sequence (P35968 whole entry): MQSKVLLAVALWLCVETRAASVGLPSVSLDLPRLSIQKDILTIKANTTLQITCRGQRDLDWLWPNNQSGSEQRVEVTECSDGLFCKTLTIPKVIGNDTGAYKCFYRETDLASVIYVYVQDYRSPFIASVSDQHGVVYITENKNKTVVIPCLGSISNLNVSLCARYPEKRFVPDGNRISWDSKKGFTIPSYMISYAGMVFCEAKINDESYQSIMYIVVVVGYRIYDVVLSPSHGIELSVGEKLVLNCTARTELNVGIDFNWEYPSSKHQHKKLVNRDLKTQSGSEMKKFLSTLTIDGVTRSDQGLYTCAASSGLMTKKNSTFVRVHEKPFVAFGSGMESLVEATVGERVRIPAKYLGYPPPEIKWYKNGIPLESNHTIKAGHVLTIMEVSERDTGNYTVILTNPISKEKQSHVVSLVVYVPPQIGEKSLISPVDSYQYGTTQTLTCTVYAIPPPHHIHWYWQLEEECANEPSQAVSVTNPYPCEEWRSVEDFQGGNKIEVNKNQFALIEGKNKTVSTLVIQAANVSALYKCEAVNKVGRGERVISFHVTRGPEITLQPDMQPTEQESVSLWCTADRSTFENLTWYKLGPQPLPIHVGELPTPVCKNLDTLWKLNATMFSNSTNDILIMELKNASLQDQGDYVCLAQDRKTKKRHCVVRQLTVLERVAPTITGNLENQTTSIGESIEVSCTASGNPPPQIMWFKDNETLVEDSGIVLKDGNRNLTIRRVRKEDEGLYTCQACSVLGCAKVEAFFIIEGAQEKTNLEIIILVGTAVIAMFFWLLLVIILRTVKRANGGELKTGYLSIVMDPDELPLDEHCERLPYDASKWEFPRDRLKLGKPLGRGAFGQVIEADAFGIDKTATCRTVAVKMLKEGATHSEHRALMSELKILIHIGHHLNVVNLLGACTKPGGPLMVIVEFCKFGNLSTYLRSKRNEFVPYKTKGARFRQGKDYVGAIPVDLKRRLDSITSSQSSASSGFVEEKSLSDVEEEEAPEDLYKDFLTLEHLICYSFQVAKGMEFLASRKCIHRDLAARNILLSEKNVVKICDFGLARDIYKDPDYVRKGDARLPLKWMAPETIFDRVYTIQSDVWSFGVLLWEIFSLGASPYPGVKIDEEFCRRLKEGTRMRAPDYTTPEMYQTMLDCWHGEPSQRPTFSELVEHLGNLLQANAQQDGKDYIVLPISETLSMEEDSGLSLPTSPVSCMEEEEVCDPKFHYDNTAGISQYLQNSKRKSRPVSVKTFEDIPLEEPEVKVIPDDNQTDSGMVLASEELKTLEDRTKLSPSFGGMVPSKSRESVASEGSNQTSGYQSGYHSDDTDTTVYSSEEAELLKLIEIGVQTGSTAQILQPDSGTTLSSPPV
Sequence of Voltage-gated inwardly rectifying potassium channel KCNH2 (Q12809 whole entry): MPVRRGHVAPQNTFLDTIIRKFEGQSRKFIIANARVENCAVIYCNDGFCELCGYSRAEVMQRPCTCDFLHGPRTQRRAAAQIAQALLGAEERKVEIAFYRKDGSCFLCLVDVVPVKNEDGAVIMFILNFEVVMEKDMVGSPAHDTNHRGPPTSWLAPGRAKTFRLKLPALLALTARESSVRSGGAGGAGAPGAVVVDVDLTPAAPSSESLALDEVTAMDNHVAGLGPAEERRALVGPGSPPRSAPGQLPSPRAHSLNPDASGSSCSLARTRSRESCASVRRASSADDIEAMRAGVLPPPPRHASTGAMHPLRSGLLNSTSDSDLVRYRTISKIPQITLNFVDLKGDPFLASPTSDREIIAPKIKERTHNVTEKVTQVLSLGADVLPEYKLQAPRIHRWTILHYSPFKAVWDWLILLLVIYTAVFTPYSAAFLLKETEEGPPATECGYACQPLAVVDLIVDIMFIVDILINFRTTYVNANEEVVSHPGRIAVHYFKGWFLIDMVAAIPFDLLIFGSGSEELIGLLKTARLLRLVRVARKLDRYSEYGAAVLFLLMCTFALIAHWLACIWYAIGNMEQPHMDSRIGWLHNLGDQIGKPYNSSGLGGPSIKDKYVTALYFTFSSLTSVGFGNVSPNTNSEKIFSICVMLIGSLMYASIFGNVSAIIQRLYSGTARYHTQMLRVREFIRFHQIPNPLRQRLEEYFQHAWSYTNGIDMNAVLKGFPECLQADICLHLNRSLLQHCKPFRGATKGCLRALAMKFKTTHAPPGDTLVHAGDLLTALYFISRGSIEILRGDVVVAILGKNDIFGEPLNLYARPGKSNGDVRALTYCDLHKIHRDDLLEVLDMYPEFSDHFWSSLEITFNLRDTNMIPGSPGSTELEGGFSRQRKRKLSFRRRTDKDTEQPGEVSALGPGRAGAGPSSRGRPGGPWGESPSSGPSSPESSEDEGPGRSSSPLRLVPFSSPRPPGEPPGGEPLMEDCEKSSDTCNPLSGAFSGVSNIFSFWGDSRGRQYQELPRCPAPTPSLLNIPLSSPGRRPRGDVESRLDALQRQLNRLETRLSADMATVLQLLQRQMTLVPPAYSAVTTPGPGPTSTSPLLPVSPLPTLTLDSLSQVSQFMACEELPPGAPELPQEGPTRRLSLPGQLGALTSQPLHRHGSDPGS
T2 sequence (P12931 2-536 limits assumed): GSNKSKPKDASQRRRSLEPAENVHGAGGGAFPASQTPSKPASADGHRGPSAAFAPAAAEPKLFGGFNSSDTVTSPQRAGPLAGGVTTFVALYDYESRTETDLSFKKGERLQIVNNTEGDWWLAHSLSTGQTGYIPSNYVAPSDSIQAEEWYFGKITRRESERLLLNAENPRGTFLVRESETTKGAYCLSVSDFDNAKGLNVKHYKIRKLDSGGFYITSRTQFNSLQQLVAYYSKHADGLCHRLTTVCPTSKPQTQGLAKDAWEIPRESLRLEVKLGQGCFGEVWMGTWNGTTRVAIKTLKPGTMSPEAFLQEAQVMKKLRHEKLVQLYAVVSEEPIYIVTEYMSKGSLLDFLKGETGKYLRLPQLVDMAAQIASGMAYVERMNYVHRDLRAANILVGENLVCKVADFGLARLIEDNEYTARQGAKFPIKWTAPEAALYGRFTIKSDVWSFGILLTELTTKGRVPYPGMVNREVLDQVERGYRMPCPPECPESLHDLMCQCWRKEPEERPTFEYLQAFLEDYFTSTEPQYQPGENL
Sequence of Mast/stem cell growth factor receptor Kit (P10721 whole entry): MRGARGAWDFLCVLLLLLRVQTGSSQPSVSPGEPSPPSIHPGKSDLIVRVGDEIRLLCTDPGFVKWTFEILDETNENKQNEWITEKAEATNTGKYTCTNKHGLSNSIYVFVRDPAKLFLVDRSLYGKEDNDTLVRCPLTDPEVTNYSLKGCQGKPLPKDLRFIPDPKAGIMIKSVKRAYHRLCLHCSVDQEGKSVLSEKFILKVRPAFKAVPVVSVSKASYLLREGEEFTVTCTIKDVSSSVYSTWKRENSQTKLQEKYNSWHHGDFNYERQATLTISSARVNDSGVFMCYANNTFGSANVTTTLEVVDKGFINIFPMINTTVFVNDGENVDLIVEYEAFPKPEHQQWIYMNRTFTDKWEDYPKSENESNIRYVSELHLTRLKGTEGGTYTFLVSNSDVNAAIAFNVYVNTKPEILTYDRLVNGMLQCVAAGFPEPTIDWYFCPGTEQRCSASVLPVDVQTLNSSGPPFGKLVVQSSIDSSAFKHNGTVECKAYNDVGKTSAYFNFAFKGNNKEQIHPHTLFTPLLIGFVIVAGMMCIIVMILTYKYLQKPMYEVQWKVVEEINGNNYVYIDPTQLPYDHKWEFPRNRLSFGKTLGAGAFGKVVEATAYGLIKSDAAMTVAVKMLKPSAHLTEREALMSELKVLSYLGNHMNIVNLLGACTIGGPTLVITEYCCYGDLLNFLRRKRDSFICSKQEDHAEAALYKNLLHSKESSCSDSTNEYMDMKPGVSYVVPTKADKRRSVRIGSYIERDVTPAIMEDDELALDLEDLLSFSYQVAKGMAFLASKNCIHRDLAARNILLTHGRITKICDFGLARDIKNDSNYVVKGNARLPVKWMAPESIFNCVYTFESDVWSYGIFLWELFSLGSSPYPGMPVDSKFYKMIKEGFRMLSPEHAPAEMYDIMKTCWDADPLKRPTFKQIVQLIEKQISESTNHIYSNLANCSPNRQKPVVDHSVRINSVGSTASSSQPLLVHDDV
Sequence of Tyrosine-protein kinase Yes (P07947 whole entry): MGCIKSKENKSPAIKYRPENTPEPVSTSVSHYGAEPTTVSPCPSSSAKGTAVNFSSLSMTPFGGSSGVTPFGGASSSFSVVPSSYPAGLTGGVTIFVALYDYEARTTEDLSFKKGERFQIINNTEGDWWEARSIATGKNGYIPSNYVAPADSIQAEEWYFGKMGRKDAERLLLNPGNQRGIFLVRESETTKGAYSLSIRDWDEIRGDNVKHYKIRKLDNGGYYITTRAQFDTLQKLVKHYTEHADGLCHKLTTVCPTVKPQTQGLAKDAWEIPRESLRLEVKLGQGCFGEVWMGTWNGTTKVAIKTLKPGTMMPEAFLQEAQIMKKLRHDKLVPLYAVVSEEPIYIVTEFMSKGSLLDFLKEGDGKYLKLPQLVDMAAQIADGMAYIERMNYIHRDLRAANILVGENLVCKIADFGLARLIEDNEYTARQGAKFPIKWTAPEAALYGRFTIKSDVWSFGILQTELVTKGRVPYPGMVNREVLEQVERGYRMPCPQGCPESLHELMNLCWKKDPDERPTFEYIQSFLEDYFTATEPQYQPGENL

IC50 (ACHN): 325 nM
IC50 (HT-29 [1]): 15 nM
SMILES: Cn1c(=O)cc(Nc2ccc(Br)cc2F)c2c(=O)n(C3CC3)c(=O)n(-c3ccccc3)c21

IC50 (PC-9 [3]): 21 nM
GI50 (NCI-H1975 [4]): 17 nM
GI50 (PC-9 [5]): 19 nM
GI50 (Calu-3): 846 nM
solubility [6]: 43 µM (≈ 22.3 µg/mL)
SMILES: C=CC(=O)Nc1cc(Nc2ncc(Cl)c(-c3cnn4ccccc34)n2)c(OC)cc1C1CC(N(C)C)C1 (stereo not given)
IC50 [2]: 4 nM
IC50 [7]: 4000 nM

IC50 [8]: 359 nM
SMILES: Cc1ccc(NC(=O)c2cc(C(C)(C)C)on2)cc1C#Cn1cnc2c(NC3CC3)ncnc21

Ki [9]: 4.5 nM
SMILES: C(=C\c1n[nH]c2cc(Sc3ccccc3)ccc12)/c1ccccc1

IC50 [10]: 100 nM
IC50 (NCI-H1975 [11]): 770 nM
SMILES: COc1cc(N2CCN(C(C)=O)CC2)ccc1Nc1ncc(Cl)c(-c2c[nH]c3ccccc23)n1

Ki [9]: 5100 nM
SMILES: COc1cc(/C=C/c2cc(/C=C/c3ccc(O)c(OC)c3)[nH]n2)ccc1O [CURCUMIN PYRAZOLE]

AUC(0-inf) [13]: 300 ng·h/mL
SMILES: COc1cc(-c2ccc3[nH]nc(/C=C/c4ccc(OC)c(OC)c4)c3c2)ccc1O
IC50 at 72 h [12]: 18 nM

EC50 (SK-MEL-28): 24 nM
SMILES: CC(=O)N1CCN(c2ccc(Nc3nccc(-c4sc(C(C)C)nc4-c4cccc(NS(=O)(=O)c5ccccc5)c4)n3)cn2)CC1

IC50 [14]: 15500 nM
SMILES: Cc1ccc(NC(=O)c2cc(C(C)(C)C)on2)cc1/C=C/n1cnc2c(NC3CC3)ncnc21

IC50 [15]: 11 nM
SMILES: CC(=O)c1c(C)c2cnc(Nc3ccc(N4CCNCC4)cc3)nc2n(C2CCCC2)c1=O

IC50 [16]: 100 nM
SMILES: CCN(CC)CCNC(=O)c1c(C)[nH]c(/C=C2\C(=O)Nc3ccccc32)c1C

SMILES: Cc1cccc(Cl)c1NC(=O)c1ccc2nc(Nc3cccc(NCCO)n3)sc2c1
IC50 [17]: 500 nM

IC50 [15]: > 5000 nM
SMILES: CCOC(=O)c1c(C)c2cnc(Nc3ccc(N4CCNCC4)cc3)nc2n(C2CCCC2)c1=O

SMILES: COc1cc(Nc2c(C#N)cnc3cc(OCCCN4CCN(C)CC4)c(OC)cc23)c(Cl)cc1Cl [BOSUTINIB]
inhibition in vivo at 25 mg/kg (HT-29 [18]): 44%
inhibition in vivo at 50 mg/kg (HT-29 [19]): 35%

IC50 [20]: 50 nM
half-life [21]: 1.3 h
bioavailability [22]: > 80%
half-life [23]: 1.1 h
bioavailability [24]: < 5%
SMILES: COc1cc2c(Nc3ccc(Br)cc3F)ncnc2cc1OCCn1ccnn1 [ZD-4190 FREE BASE]
Activity (Calu-6): 75%

IC50 (PC-9 [3]): 2 nM
GI50 (NCI-H1975 [4]): 3 nM
GI50 (PC-9 [5]): 4 nM
GI50 (Calu-3): 180 nM
solubility [6]: 222 µM (≈ 112 µg/mL)
SMILES: C=CC(=O)Nc1cc(Nc2ncc(Cl)c(-c3cnn4ccccc34)n2)c(OC)cc1C(C)CCNC (stereo not given)
IC50 [2]: 0.6 nM
IC50 [7]: 6700 nM

IC50 (ACHN): < 3000 nM
IC50 (HT-29 [1]): > 1000 nM
SMILES: Cn1c(Nc2ccccc2)c2c(=O)n(C3CC3)c(=O)n(-c3ccc(Br)cc3)c2cc1=O

SMILES: Cc1cc(Nc2ncc(C(=O)Nc3c(C)cccc3Cl)s2)nc(C)n1
IC50 [17]: 1000 nM
IC50 [25]: 5 nM
IC50 [26]: 0.5 nM
IC50 [27]: 0.5 nM
IC50 (PC-3): 9.4 nM
IC50 (MDA-MB-231 [28]): 12 nM
IC50 [29]: 0.4 nM

SMILES: CNC(=O)c1cc(Oc2ccc(NC(=O)Nc3ccc(Cl)c(C(F)(F)F)c3)c(F)c2)ccn1 [REGORAFENIB]
inhibition in vivo at 100 mg/kg (COLO 205): 75%
inhibition in vivo at 3 mg/kg (MDA-MB-231 [30]): 81%
inhibition in vivo at 10 mg/kg (786-0): > 90%

half-life [31]: 3 h
SMILES: COc1cc2ncnc(Nc3ccc(F)c(Cl)c3)c2cc1OC
